From patent publication US8518968B2, “Hydrazone and diacyl hydrazine compounds and methods of use” (The United States of America, as represented by the …, priority 2009, dated 2013)
Where a name gives a salt, the structure may show the parent alone.

What follows are compounds tested on JEKO-1 cells stably transfected with shRNAs to luciferase or NOXA (assay: Effect of NOXA shRNA on cytotoxicity in JEKO-1 cells (MTT)). Conditions: JEKO-1 shLuc vs shNoxa, 24 hours.
Assay type: cell-based
Description: The effect of NOXA on cytotoxicity of CBU-028, EERI, or bortezomib is determined. FIG. 4 presents graphs comparing CBU-028, EERI, and bortezomib with respect to percent cell viability as a function of concentration, measured using JEKO-1 cells stably transfected with shRNAs to luciferase (shLuc, control, ▪) or NOXA (shNoxa, ◯, sequence: [NT]) after treatment with the compound for 24 hrs, with viability determined with MTT as described above and normalized to the untreated control.

Row | SMILES | requirement of NOXA for cytotoxicity
1 | CC(C)C[C@H](NC(=O)[C@H](Cc1ccccc1)NC(=O)c1cnccn1)B(O)O [bortezomib] | Noxa is equally required

These compounds were tested on JEKO-1 cells (assay: cells). Conditions: Homo sapiens, JeKo-1, 48 h.

Row | SMILES | IC50 [µM]
2 | CC1(C)C(N(O)C(=O)Nc2ccc(C(F)(F)F)cc2)N(c2ccc(C(F)(F)F)cc2)C(=O)N1CC(=O)NN (centres unmarked) [CBU-007, 1-(1-(2-hydrazinyl-2-oxoethyl)-5,5-dimethyl-2-oxo-3-(4-(tri-fluoromethyl)phenyl)imi-dazolidin-4-yl)-1-hydroxy-3-(4-(trifluoromethyl)phenyl)urea] | 30
3 | O=C(N/N=C/C=C/c1ccc([N+](=O)[O-])o1)c1ccc(C(=O)N/N=C/C=C/c2ccc([N+](=O)[O-])o2)c(O)c1O [CBU-049, (N′1E,N′4E)-2,3-dihydroxy-N′1,N′4-bis((E)-3-(5-nitrofuran-2-yl)allylidene)terephthalo hydrazide] | 1.5

Same assay, conditions: Homo sapiens, JeKo-1, 48 h, JEKO-1 cells, incubated 2 days, MTT, four parameter logistic fit

Row | SMILES | IC50 [µM]
4 | CC1(C)C(N(O)C(=O)Nc2ccc(C(F)(F)F)cc2)N(c2ccc(C(F)(F)F)cc2)C(=O)N1CC(=O)N/N=C/C=C/c1ccc([N+](=O)[O-])o1 (centres unmarked) [CBU-008] | 2.5
5 | CC1(C)C(N(O)C(=O)Nc2ccc(Cl)cc2)N(c2ccc(C(F)(F)F)cc2)C(=O)N1CC(=O)N/N=C/C=C/c1ccc([N+](=O)[O-])o1 (centres unmarked) [CBU-013] | 3
6 | CC1(C)C(N(O)C(=O)Nc2ccc(C(F)(F)F)cc2)N(c2ccc(Cl)cc2)C(=O)N1CC(=O)N/N=C/C=C/c1ccc([N+](=O)[O-])o1 (centres unmarked) [CBU-014] | 3
7 | O=C(N/N=C/C=C/c1ccc([N+](=O)[O-])o1)c1ccccc1 [CBU-015, (E)-N′-((E)-3-(5-nitrofuran-2-yl)allylidene)benzohydrazide] | 8
8 | O=C(N/N=C/C=C/c1ccc([N+](=O)[O-])o1)c1cccnc1 [CBU-016, (E)-N′-((E)-3-(5-nitrofuran-2-yl)allylidene)nicotinonhydrazide] | 7
9 | CCNC(=S)N/N=C/C=C/c1ccc([N+](=O)[O-])o1 [CBU-017, (E)-N-ethyl-2-((E)-3-(5-nitrofuran-2-yl)allylidene)hydrazine-carbothioamide] | 15
10 | CC(C)(C)OC(=O)N/N=C/C=C/c1ccc([N+](=O)[O-])o1 [CBU-018, (E)-tert-butyl 2-((E)-3-(5-nitrofuran-2-yl)allylidene)hydrazine-carboxylate] | 18
11 | C[N+](C)(C)CC(=O)N/N=C/C=C/c1ccc([N+](=O)[O-])o1 [CBU-019] | 3.5
12 | N=C(N)N/N=C/C=C/c1ccc([N+](=O)[O-])o1 [CBU-020, (E)-2-((E)-3-(5-nitrofuran-2-yl)allylidene)hydrazine-carboximidamide hydrochloride] | 4
13 | O=C(N/N=C/C=C/c1ccc([N+](=O)[O-])o1)c1cccc(O)c1 [CBU-021, (E)-3-hydroxy-N′-((E)-3-(5-nitrofuran-2-yl)allylidene)benzohydrazide] | 8
14 | O=C(CNC(=O)Nc1ccc(Cl)cc1)N/N=C/C=C/c1ccc([N+](=O)[O-])o1 [CBU-022, 1-(4-chlorophenyl)-3-(2-((E)-2-((E)-3-(5-nitrofuran-2-yl)allylidene)hydrazinyl)-2-oxoethyl)urea] | 6
15 | CC1(C)C(N(O)C(=O)Nc2ccc(Cl)cc2)N(c2ccc(Cl)cc2)C(=O)N1CC(=O)N/N=C/C=C/c1ccco1 (centres unmarked) [CBU-023] | 15
16 | CC1(C)C(N(O)C(=O)Nc2ccc(Cl)cc2)N(c2ccc(Cl)cc2)C(=O)N1CC(=O)N/N=C/c1ccc([N+](=O)[O-])o1 (centres unmarked) [CBU-024] | 7
17 | O=C(N/N=C/C=C/c1ccc([N+](=O)[O-])o1)c1ccccc1O [CBU-025, (E)-2-hydroxy-N′-((E)-3-(5-nitrofuran-2-yl)allylidene)benzohydrazide] | 6.5
18 | O=C(N/N=C/C=C/c1ccc([N+](=O)[O-])o1)c1ccc(O)cc1 [CBU-027, (E)-4-hydroxy-N′-((E)-3-(5-nitrofuran-2-yl)allylidene)benzohydrazide] | 7.5
19 | O=C(N/N=C/C=C/c1ccc([N+](=O)[O-])o1)c1ccncc1 [CBU-033, (E)-N′-((E)-3-(5-nitrofuran-2-yl)allylidene)isonicotino-hydrazide] | 6

Row | SMILES | IC50 [µM]
20 | O=C(N/N=C/C=C/c1ccc([N+](=O)[O-])o1)c1cccs1 [CBU-034, (E)-N′-((E)-3-(5-nitrofuran-2-yl)allylidene)thiophene-2-carbohydrazide] | 20
21 | O=C(N/N=C/C=C/c1ccc([N+](=O)[O-])o1)c1nc(O)c2ccccc2c1O [CBU-036, (E)-1,4-dihydroxy-N′-((E)-3-(5-nitrofuran-2-yl)allylidene)isoquinoline-3-carbohydrazide] | 9
22 | Cc1cccc(C(=O)N/N=C/C=C/c2ccc([N+](=O)[O-])o2)c1O [CBU-038, (E)-2-hydroxy-3-methyl-N′-((E)-3-(5-nitrofuran-2-yl)allylidene)benzohydrazide] | 9
23 | O=C(N/N=C/C=C/c1ccc([N+](=O)[O-])o1)c1cnc2cc(C(F)(F)F)ccc2c1O [CBU-039, (E)-4-hydroxy-N′-((E)-3-(5-nitrofuran-2-yl)allylidene)-7-(trifluoromethyl)quinoline-3-carbohydrazide] | 15
24 | O=C(N/N=C/C=C/c1ccc([N+](=O)[O-])o1)c1cnc2c(C(F)(F)F)cccc2c1O [CBU-040, (E)-4-hydroxy-N′((E)-3-(5-nitrofuran-2-yl)allylidene)-8-(trifluoromethyl)quinoline-3-carbohydrazide] | 10
25 | O=C(N/N=C/C=C/c1ccc([N+](=O)[O-])o1)c1cc(Br)ccc1O [CBU-041, (E)-5-bromo-2-hydroxy-N′-((E)-3-(5-nitrofuran-2-yl)allylidene)benzohydrazide] | 10
26 | O=C(N/N=C/C=C/c1ccc([N+](=O)[O-])o1)c1ccc(O)cc1O [CBU-042, (E)-2,4-dihydroxy-N′-((E)-3-(5-nitrofuran-2-yl)allylidene)benzohydrazide] | 40
27 | COc1ccc(C(=O)N/N=C/C=C/c2ccc([N+](=O)[O-])o2)c(O)c1 [CBU-043, (E)-2-hydroxy-4-methoxy-N′-((E)-3-(5-nitrofuran-2-yl)allylidene)benzohydrazide] | 30
28 | Cc1ccc(O)c(C(=O)N/N=C/C=C/c2ccc([N+](=O)[O-])o2)c1 [CBU-045, (E)-2-hydroxy-5-methyl-N′-((E)-3-(5-nitrofuran-2-yl)allylidene)benzohydrazide] | 6
29 | COc1ccc(O)c(C(=O)N/N=C/C=C/c2ccc([N+](=O)[O-])o2)c1 [CBU-046, (E)-2-hydroxy-5-methoxy-N′-((E)-3-(5-nitrofuran-2-yl)allylidene)benzohydrazide] | 10
30 | O=C(N/N=C/C=C/c1ccccc1)c1cc2ccccc2cc1O [CBU-051, (E)-3-hydroxy-N′-((E)-3-phenylallylidene)-2-naphthohydrazide] | 10
31 | CN(C)c1ccc(/C=C/C=N/NC(=O)c2cc3ccccc3cc2O)cc1 [CBU-054, (E)-N′-((E)-3-(4-(dimethylamino)phenyl)allylidene)-3-hydroxy-2-naphthohydrazide] | 15
32 | O=C(N/N=C/C=C/c1ccccc1[N+](=O)[O-])c1cc2ccccc2cc1O [CBU-055, (E)-3-hydroxy-N′-((E)-3-(2-nitrophenyl)allylidene)-2-naphthohydrazide] | 6
33 | O=C(N/N=C/C=C/c1ccc([N+](=O)[O-])cc1)c1cc2ccccc2cc1O [CBU-061, (E)-3-hydroxy-N′-((E)-3-(4-nitrophenyl)allylidene)-2-naphthohydrazide] | 5
34 | O=C(/C=C/c1ccc([N+](=O)[O-])o1)NNC(=O)c1cc2ccccc2cc1O [CBU-062, (E)-3-hydroxy-N′-(3-(5-nitrofuran-2-yl)acryloyl)-2-naphthohydrazide] | 2.5
35 | CC1(C)C(N(O)C(=S)Nc2ccc(Cl)cc2)N(c2ccc(Cl)cc2)C(=S)N1CC(=O)N/N=C/C=C/c1ccc([N+](=O)[O-])o1 (centres unmarked) [CBU-073] | 3
